The values that follow come from patent publication US9422246B2, “Benzylidene azolidine derivative or salt thereof” (ROHTO Pharmaceutical Co., Ltd., priority 2012, dated 2016).

A short description of data set [1]: UV absorbing properties (UV spectrum in ethanol). Conditions: 5 ppm in ethanol, quartz cell 1 cm optical path length. It counts as physicochemical. As to the method: The resulting compound 1 was dissolved at a concentration of 5 ppm in ethanol as a solvent to form a sample solution. After the prepared sample solution was injected into a quartz cell (1 cm in optical path length), the UV spectrum of the sample was measured with a spectrophotometer (UV-2450 manufactured by SHIMADZU CORPORATION), in which the maximal absorption wavelength (λmax) and the absorbance at the maximal absorption wavelength were determined. When the maximal absorption wavelength falls within the ultraviolet wavelength range, the higher absorbance at the maximal absorption wavelength indicates the better UV absorbing properties.

Data set [2] is described as follows: Evaluation of hydrophilicity (solubility in test solvent). It counts as physicochemical. Conditions: 25° C.; test solvent 10% by weight dipropylene glycol, 10% ethanol, 80% purified water. The protocol:
Test solvent: A mixed solvent containing 10% by weight of dipropylene glycol, 10% by weight of ethanol, and 80% by weight of purified water (based on 100% by weight of the total amount of dipropylene glycol, ethanol, and purified water).
Based on the difference in solubility, the hydrophilicity was evaluated as follows.
Particularly high hydrophilicity: A solubility of 1.0 or more (g/100 g test solvent)
High hydrophilicity: A solubility of 0.2 to less than 1.0 (g/100 g test solvent)
Low hydrophilicity: A solubility of 0.1 to less than 0.2 (g/100 g test solvent)
No hydrophilicity: A solubility of less than 0.1 (g/100 g test solvent) or the occurrence of suspended solids

`COc1ccc(C=C2C(=O)N(CC(=O)N(CCO)CCO)C(=O)N2CC(=O)N(CCO)CCO)cc1` [Compound 6, 5-(4-methoxybenzylidene]-1,3-bis[2-[bis(2-hydroxyethyl)amino]-2-oxoethyl]hydantoin]: in data set [1], the “Absorbance at maximal absorption wavelength” value (from here on “Absorbance”) is 0.18 and the “Maximal absorption wavelength (λmax)” value stood at 328 nm. Besides, the Solubility in data set [2] is reported as 25< g/100 g test solvent.
In the same order, the values of `O=C(CCN1C(=O)NC(=Cc2ccc(OCCOCCO)cc2)C1=O)N(CCO)CCO` [Compound 4, 5-[4-[2-(2-hydroxyethoxyl)ethoxy]benzylidene]-3-[3-[bis(2-hydroxyethyl)amino]-3-oxopropyl]hydantoin] are 0.34, 338 nm and 1.5 g/100 g test solvent.
On the same counts, the results for `COc1ccc(C=C2C(=O)N(CC(=O)OCCOCCO)C(=O)N2CC(=O)OCCOCCO)cc1` [Compound 7, 5-(4-methoxybenzylidene)-1,3-bis[2-[2-(2-hydroxyethoxy)ethoxy]-2-oxoethyl]hydantoin] are 0.14, 326 nm and 25< g/100 g test solvent.
For `O=C(COc1ccc(C=C2NC(=O)N(CC(=O)N(CCO)CCO)C2=O)cc1)N(CCO)CCO` [Compound 3, 5-[4-[2-[bis(2-hydroxyethyl)amino]-2-oxoethoxy]benzylidene]-3-[2-[bis(2-hydroxyethyl)amino]-2-oxoethyl]hydantoin], in data set [1], the “Absorbance” value is recorded as 0.30 and the “Maximal absorption wavelength (λmax)” value was determined as 336 nm. The Solubility in data set [2] worked out at 1.2 g/100 g test solvent.
With `O=C1NC(=Cc2ccc(OCCOCCO)cc2)C(=O)N1CCOCCO` [Compound 1, 5-[4-[2-(2-hydroxyethoxyl)ethoxy]benzylidene]-3-[2-(2-hydroxyethoxyl)ethyl]hydantoin], in data set [1], the “Absorbance” value is 0.43 and the “Maximal absorption wavelength (λmax)” value amounted to 335 nm. Also, the Solubility in data set [2] is given as 2.0 g/100 g test solvent.
Regarding `O=C(COc1ccc(C=C2NC(=O)N(CC(=O)OCCOCCO)C2=O)cc1)OCCOCCO` [Compound 5, 5-[4-[2-[2-(2-hydroxyethoxyl)ethoxy]-2-oxoethoxy]benzylidene]-3-[2-[2-(2-hydroxyethoxyl)ethoxy]-2-oxoethyl]hydantoin], in data set [1], the “Absorbance” value came to 0.20 and the “Maximal absorption wavelength (λmax)” value is 335 nm. The molecule further came in with a Solubility in data set [2] of 0.2 g/100 g test solvent.
On the same counts, the results for `O=C1C(=Cc2ccc(OCCOCCOCCO)cc2)N(CCOCCOCCO)C(=O)N1CCOCCOCCO` [Compound 2, 5-[4-[2-[2-(2-hydroxyethoxyl)ethoxy]ethoxy]benzylidene]-1,3-bis[2-[2-(2-hydroxyethoxyl)ethoxy]ethyl]hydantoin] are 0.12, 325 nm and 25< g/100 g test solvent.
`CCCCC(CC)COC(=O)CCN1C(=O)NC(=Cc2ccc(OC)c(OC)c2)C1=O` (stereo not shown) [1′, 2-ethylhexyl dimethoxybenzylidene dioxoimidazolidine propionate, reference compound]: in data set [2], the Solubility is recorded as less than 0.05 g/100 g test solvent.
